According to patent publication US20230200388A1, “COMPOUNDS AND METHODS FOR STIMULATING PLANTS” (Sound Agriculture Company, priority 2020, published 2023):

Tests used:
Type in all cases: cell-based
[1] = tested on: nifHpro::luciferase Azotobacter vinelandii reporter line; experiment: Nitrogenase (nifH) activity with nifHpro::luciferase Azotobacter vinelandii reporter line; settings: 10 μM to 0.001 μM in DMSO, 21 hours, over controls, n=9 experiments, FIG. 6
Procedure: Gibson Assembly was used to clone the luciferase gene (ordered from IDT) into pE_Gm and LR into pVSP61 (plasmids provided by Doug Dahlbeck at Staskawicz Lab, UC Berkeley). Standard triparental mating was used with pRK600 (provided by Doug Dahlbeck at Staskawicz Lab, UC Berkeley) to obtain the final reporter strain of Azotobacter vinelandii transformed with reporter plasmid.
nifHpro::luciferase Azotobacter vinelandii were grown for 24 hours in 50 mL liquid Burks —N media (HiMedia Laboratories) with 1 ng/μL Kanamycin, shaking at 100 RPM under lights at ˜30° C. After 24 hours, supernatant was spun down 12000 G for two minutes to collect cells. After supernatant was removed, cells were washed with cleared Burks —N liquid media supernatant, resuspended, and centrifuged again at 12000 G. This process was repeated, for a total of two washes.
Resuspended cells were combined with Burks —N media with 1 ng/μL Kanamycin, to obtain a fresh culture at OD 0.1. 50 mL shake flasks were then inoculated with 5 mL of this culture, plus appropriate chemistry, in the scheme that follows. A stock solution of Quercetin was made in DMSO. […]
After 21 hours, 50 mL flasks were removed from the shaker. […] Plates were inserted into plate reader and luminescence of each well was analyzed.

[2] = tested on: nifHpro::luciferase Azotobacter vinelandii reporter strain; experiment: nifHpro::luciferase bioreporter assay for nitrogen fixation; settings: 1 μM, 24 h, relative to control bacteria not contacted
Procedure: Three hundred base pairs upstream of the ATG of the nifHDK of Azotobacter vinelandii (nifHipro) was cloned in frame, upstream of luciferase in pVSP61 (kanR). Azotobacter vinelandii (Lipman ATCC® BAA-1303) was transformed with the reporter plasmid with triparental mating, Transformants were selected for on nitrogen-free kanamycin plates and confirmed with PCR and sequencing.
Five milliliters of nifHpro::luciferase Bioreporter strain #171 was grown overnight in autoclaved, nitrogen-free medium (Burks, HiMedia M707) at starting OD600=0.02 with 1 ug/mL Kanamycin in sterile 50 mL flasks. Chemical treatments were dissolved in 100% EtOH and added at appropriate concentrations, keeping the volume constant. The solvent was no more than 2% of the final culture volume, and solvent only controls were included in each experiment.
After 24 h, the growth density each culture was read in a clear, flat-bottomed microplate by adding 180 μl to each well (flasks were measured in triplicate) and measuring absorbance at 600 nm in a microplate reader. […]
The luminescence of each well was read on an iD3 plate reader (Molecular Devices). Luminescence of each well (reported as RLU, Relative Light Unit) was divided by its OD600 in order to adjust for culture density.

[3] = tested on: soil's native microbial community; experiment: Phosphate solubilization in soil consortia (soil as inoculum in NBRIP media); settings: relative to soil not contacted with QC
Excerpt: To determine if a test compound, QC, alters phosphate solubilization in a soil's native microbial community, dried and sieved soil was used as a bacterial inoculum in NBRIP media with and without QC.

SMILES	activation of nifHpro::luciferase bioreporter (nitrogenase gene expression) [1]	luminescence (nitrogen fixation) [2]	amount of detectable orthophosphate in the growth media of soil-inoculated cultures [3]
O=c1c(O)c(-c2ccc(O)c(O)c2)oc2cc(O)cc(O)c12 [Formula Id]	activated	–	–
O=c1c(O)c(-c2ccc(O)c(O)c2)oc2cc(O)cc(O)c12 [QC, quercetin]	–	significant increase	increased
